One series has as its target T1, Recombinant human DESC1 (Homo sapiens, UniProt Q9UL52).
T1 construct: made in house
T1 sequence (Q9UL52 1-423): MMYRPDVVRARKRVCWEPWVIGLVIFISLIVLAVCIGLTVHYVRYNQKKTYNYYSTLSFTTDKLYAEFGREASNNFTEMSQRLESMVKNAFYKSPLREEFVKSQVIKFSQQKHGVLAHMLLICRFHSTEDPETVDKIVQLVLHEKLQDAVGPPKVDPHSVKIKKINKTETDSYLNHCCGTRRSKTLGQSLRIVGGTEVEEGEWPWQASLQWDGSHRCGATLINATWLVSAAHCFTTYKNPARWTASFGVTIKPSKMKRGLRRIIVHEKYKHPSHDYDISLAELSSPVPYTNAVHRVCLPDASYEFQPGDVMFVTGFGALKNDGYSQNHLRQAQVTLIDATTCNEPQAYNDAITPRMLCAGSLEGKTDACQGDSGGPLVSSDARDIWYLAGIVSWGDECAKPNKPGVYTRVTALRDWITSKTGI
The experiment in a line: Protease selectivity, Ki on recombinant protease. Format: biochemical.

In another series the target is T2, human cathepsin L (Homo sapiens, UniProt P07711).
T2 construct: purchased Bio-Techne
The experiment in a line: Protease selectivity, Ki on protease. Format: biochemical.

The nature of series [1]: Cytotoxicity CC50 in Calu-3 lung epithelial cells. The following applies: human; for viability at 24 h, 3000 µM: Log [inhibitor] -2.52; for viability at 24 h, 1000 µM: Log [inhibitor] -3.00; for viability at 24 h, 300 µM: Log [inhibitor] -3.52; for viability at 24 h, 100 µM: Log [inhibitor] -4.00; for viability at 24 h, 30 µM: Log [inhibitor] -4.52; for viability at 24 h, 10 µM: Log [inhibitor] -5.00; for viability at 24 h, 3 µM: Log [inhibitor] -5.52; for viability at 24 h, 0.3 µM: Log [inhibitor] -6.52; for viability at 24 h, 0.03 µM: Log [inhibitor] -7.52; for viability at 24 h, 0.003 µM: Log [inhibitor] -8.52. Format: cell-based, human.

In another series the test system is Calu-3 cells. Briefly: Cytotoxicity CC50 in Calu-3 lung epithelial cells. Format: cell-based, human. Particulars: single replicates.
A further series addresses human TMPRSS2 (Homo sapiens, UniProt O15393). The experiment in a line: cell-based. The following applies: for TMPRSS2 activity (%): Figure 1B, single experiments N1-N3; for inhibition at 0.01 µM: Vero C1008, 10 nM compound, 24 h, vs untreated/vehicle TMPRSS2-expressing Vero E6 cells, read-out: inhibition of TMPRSS2 activity (reduction of substrate proteolysis).
The target of another series is T3, human thrombin (Homo sapiens, UniProt P00734).
T3 construct: purchased MilliporeSigma
Briefly: Protease selectivity, Ki on protease. Format: biochemical. Particulars: mean ± s.d., max concentration 10 µM; read-out: Ki Thrombin.

The target in a further series is T4, Recombinant human furin (Homo sapiens, UniProt P09958).
T4 construct: purchased Bio-Techne
Briefly: Protease selectivity, Ki on recombinant protease. Format: biochemical. Particulars: mean ± s.d., max concentration 10 µM; read-out: Ki Furin.

Series [2] has as its system SARS-CoV-2 lineage B strain (VIDO). Briefly: microbe, parasite or virus in culture. Format: cell-based.
[3] abbreviates: single experiments N1-N3, Figure 1D, read-out: Individual Ki, Desc1.
Setting [4] is: single experiments N1-N4, Figure 1D, read-out: Individual Ki, Cathepsin L.
Where [5] appears, read: Calu-3 cells, read-out: % of Viability, Average (n=2).
[6] abbreviates: Calu-3 cells, single replicates, read-out: % of Viability.
[7] abbreviates: Calu-3 cells, unit not given for CC50, read-out: CC50.
Where [8] appears, read: Figure 2a; two replicates; DMSO control about 91-94.
Where [9] appears, read: Figure 2a; two replicates; DMSO control about 93-95.
The mark [10] stands for this setting: Severe acute respiratory syndrome coronavirus 2, Calu-3; read-out: inhibition of SARS-CoV-2 infection.

Structures are written as SMILES. Values joined by “and” are separate entries in the source; they are usually repeats but may differ in a detail not shown here. Equal entries are not always repeated. Where two headings read alike, the source gives them in different places.

The record followed here is article PMC9095466 (Nature, 2022).

human TMPRSS2, sequence (O15393 whole entry): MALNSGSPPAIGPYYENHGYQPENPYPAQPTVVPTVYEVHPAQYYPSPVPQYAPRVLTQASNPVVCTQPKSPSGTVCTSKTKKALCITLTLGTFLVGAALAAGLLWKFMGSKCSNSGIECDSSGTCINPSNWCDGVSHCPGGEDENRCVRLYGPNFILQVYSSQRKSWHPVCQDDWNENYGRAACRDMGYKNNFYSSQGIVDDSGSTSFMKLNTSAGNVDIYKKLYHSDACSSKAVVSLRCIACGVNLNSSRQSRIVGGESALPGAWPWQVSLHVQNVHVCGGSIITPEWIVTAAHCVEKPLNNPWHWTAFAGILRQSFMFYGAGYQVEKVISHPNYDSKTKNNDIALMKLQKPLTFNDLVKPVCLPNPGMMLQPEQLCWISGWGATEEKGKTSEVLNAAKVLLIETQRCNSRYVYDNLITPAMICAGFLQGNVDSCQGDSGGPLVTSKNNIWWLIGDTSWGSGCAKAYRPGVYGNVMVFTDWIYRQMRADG
T2 sequence (P07711 114-333): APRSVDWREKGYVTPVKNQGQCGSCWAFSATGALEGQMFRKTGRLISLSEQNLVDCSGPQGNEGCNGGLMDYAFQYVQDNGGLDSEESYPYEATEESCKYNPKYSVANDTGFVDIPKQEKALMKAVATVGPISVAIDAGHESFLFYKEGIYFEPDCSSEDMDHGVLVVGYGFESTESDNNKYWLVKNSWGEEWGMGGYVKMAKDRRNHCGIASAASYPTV
T4 sequence (P09958 108-794): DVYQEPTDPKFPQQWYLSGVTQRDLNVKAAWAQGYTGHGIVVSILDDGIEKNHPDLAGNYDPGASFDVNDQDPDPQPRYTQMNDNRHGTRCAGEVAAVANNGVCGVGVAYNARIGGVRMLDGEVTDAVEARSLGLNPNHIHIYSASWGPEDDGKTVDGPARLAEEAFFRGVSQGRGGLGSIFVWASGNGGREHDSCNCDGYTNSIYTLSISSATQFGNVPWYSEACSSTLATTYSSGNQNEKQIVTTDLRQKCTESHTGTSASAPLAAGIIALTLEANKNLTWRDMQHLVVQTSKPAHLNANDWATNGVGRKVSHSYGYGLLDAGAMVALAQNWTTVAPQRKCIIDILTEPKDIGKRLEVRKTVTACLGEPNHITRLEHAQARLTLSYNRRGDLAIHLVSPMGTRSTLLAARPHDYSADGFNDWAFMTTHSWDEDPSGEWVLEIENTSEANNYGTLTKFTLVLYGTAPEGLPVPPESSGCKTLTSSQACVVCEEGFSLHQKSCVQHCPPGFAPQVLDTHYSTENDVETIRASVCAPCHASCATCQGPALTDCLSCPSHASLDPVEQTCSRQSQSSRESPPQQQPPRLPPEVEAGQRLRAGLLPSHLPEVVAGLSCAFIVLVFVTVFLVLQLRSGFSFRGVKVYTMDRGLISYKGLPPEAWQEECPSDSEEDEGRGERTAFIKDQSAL

Regarding `CS(=O)(=O)N[C@@H](CCC(N)=O)C(=O)N[C@@H](Cc1ccccc1)C(=O)N[C@@H](CCCNC(=N)N)C(=O)c1nc2ccccc2s1` [Compound N-00385], the Ki (in general, the dissociation constant of the complex between target and ligand, obtained from inhibition or displacement) on Recombinant human DESC1 (setting [3]) was 0.0253 µM and 0.0169 µM and 0.0346 µM; at human cathepsin L (setting [4]), 9.7 µM and 9.06 µM and 3.83 µM and 2.57 µM.
For the molecule `CS(=O)(=O)N[C@@H](CCC(N)=O)C(=O)N[C@@H](Cc1ccccc1)C(=O)N[C@@H](CCCNC(=N)N)C(=O)c1nc2ccccc2s1` [Compound N-385], in series [1] (setting [5]), the viability (commonly a read-out of living cells in per cent, often relative to untreated cells) at 24 h, 3000 µM amounted to 52.5%; the viability at 24 h, 1000 µM worked out at 80.5%; the viability at 24 h, 300 µM was 92%; the viability at 24 h, 100 µM stood at 91%. In addition, in series [1] (setting [5]), the viability at 24 h, 30 µM was 87%; the viability at 24 h, 10 µM worked out at 101%; the viability at 24 h, 3 µM turned out to be 110%; the viability at 24 h, 0.3 µM came to 111%. In addition, in series [1] (setting [5]), the viability at 24 h, 0.03 µM is 110% and the viability at 24 h, 0.003 µM worked out at 117%. In series [1] (setting [6]), the viability at 24 h, 1000 µM was 74%; the viability at 24 h, 300 µM amounted to 90%; the viability at 24 h, 100 µM turned out to be 94%; the viability at 24 h, 30 µM is 90%. Also, in series [1] (setting [6]), the viability at 24 h, 10 µM came out at 103%; the viability at 24 h, 3 µM amounted to 110%; the viability at 24 h, 0.3 µM amounted to 113%; the viability at 24 h, 0.03 µM worked out at 116%. Moreover, in series [1] (setting [6]), the viability at 24 h, 0.003 µM was 119%. Further, the CC50 (commonly the concentration that lowers cell viability or growth by half) at 24 h in series [1] (setting [7]) is 3470 µM. For the same molecule, the “% of Viability” value with Calu-3 cells (Log [inhibitor] -2.52) was 42% and 63%. Moreover, the “% of Viability” value in the series with Calu-3 cells (Log [inhibitor] -4.00) is 88%. Besides, the “% of Viability” value with Calu-3 cells (Log [inhibitor] -4.52) was found to be 84%. In addition, the “% of Viability” value in the series with Calu-3 cells (Log [inhibitor] -5.00) came to 99%. Besides, the “% of Viability” value with Calu-3 cells (Log [inhibitor] -6.52) worked out at 109%. In addition, in the series with Calu-3 cells (Log [inhibitor] -7.52), the “% of Viability” value was 105%. Also, in the series on Calu-3 cells (Log [inhibitor] -8.52), the “% of Viability” value is 115%.
As for `CC(=O)NC(CCC(N)=O)C(=O)NC(Cc1ccccc1)C(=O)NC(CCCNC(=N)N)C(=O)c1nc2ccccc2s1` (stereo not drawn) [Compound N-0386, Ac-QFR-kbt], the “TMPRSS2 activity (%)” value on human TMPRSS2 was 22.2147% and 27.837% and 33.2674%. Moreover, at human TMPRSS2, the inhibition (in general, the change of the read-out against control, counted positive when it falls) at 0.01 µM is 73%. The Ki is 0.0091 ± 0.0019 µM on Recombinant human DESC1 (mean ± s.d., max concentration 10 µM, read-out: Ki DESC1); more than 10 µM at human thrombin; more than 10 µM on Recombinant human furin; 7.72 ± 0.142 µM on human cathepsin L (mean ± s.d., max concentration 10 µM, read-out: Ki Cathepsin L). In addition, the Nucleocapsid in series [2] (setting [8]) is 0.1229 and 1.4208. Besides, the dsRNA in series [2] (setting [9]) is 0.2037 and 0. Also, in series [2] (Severe acute respiratory syndrome coronavirus 2, Calu-3; read-out: SARS-CoV-2 VIDO Nucleocapsid EC50 ± SE), the concentration for a half-maximal effect (EC50) (as a rule, the concentration at which the effect is half-maximal) came to 0.0023 ± 0.0017 µM. Further, the inhibition at 0.1 µM in series [2] (setting [10]) was more than 99%. In addition, the “Figure 2b dose-response, Mean” value in series [2] (log [C] (nM) 0.20412) is on record as 63.391; in series [2] (log [C] (nM) 0.90309), 26.1724; in series [2] (log [C] (nM) 1.60206), 7.727; in series [2] (log [C] (nM) 2.30103) it was 6.997; in series [2] (log [C] (nM) 3), 2.833; in series [2] (log [C] (nM) -0.49485) it was 81.0636. Also, in series [2] (log [C] (nM) -1.19382), the “Figure 2b dose-response, Mean” value is on record as 95.046. In addition, the half-maximal cytotoxic concentration (CC50) at 24 h in series [1] (Calu-3 lung epithelial cells, n = 2, read-out: CC50 in Calu-3 cells) stood at 1880 µM.
On to `CC(=O)N[C@@H](CCC(N)=O)C(=O)N[C@@H](Cc1ccccc1)C(=O)N[C@@H](CCCNC(=N)N)C(=O)c1nc2ccccc2s1` [Compound N-00386], for which the Ki at Recombinant human DESC1 (setting [3]) was 0.0111 µM and 0.00728 µM and 0.00899 µM; at human cathepsin L (setting [4]) it was 7.72 µM and 7.58 µM and 7.87 µM.
As for `CC(=O)N[C@@H](CCC(N)=O)C(=O)N[C@@H](Cc1ccccc1)C(=O)N[C@@H](CCCNC(=N)N)C(=O)c1nc2ccccc2s1` [Compound N-386], in series [1] (setting [5]), the viability at 24 h, 3000 µM stood at 46%; the viability at 24 h, 300 µM stood at 82.5%; the viability at 24 h, 100 µM worked out at 87%; the viability at 24 h, 30 µM was 87.5%. Further, in series [1] (setting [5]), the viability at 24 h, 10 µM came to 87%; the viability at 24 h, 3 µM was 95%; the viability at 24 h, 0.3 µM was 100%; the viability at 24 h, 0.03 µM turned out to be 104%. Also, the viability at 24 h, 0.003 µM in series [1] (setting [5]) is 102%. Also, in series [1] (setting [6]), the viability at 24 h, 3000 µM was 44%; the viability at 24 h, 300 µM was found to be 79%; the viability at 24 h, 100 µM worked out at 86%; the viability at 24 h, 30 µM is 85%. In series [1] (setting [6]), the viability at 24 h, 10 µM is 86%; the viability at 24 h, 3 µM is 95%; the viability at 24 h, 0.3 µM worked out at 98%; the viability at 24 h, 0.03 µM stood at 101%. In series [1] (setting [6]), the viability at 24 h, 0.003 µM was found to be 102%. The CC50 at 24 h in series [1] (setting [7]) came to 1880 µM. In the series with Calu-3 cells (Log [inhibitor] -2.52), the “% of Viability” value was 48%. Also, the “% of Viability” value in the series on Calu-3 cells (Log [inhibitor] -4.00) was 88%. In addition, the “% of Viability” value in the series on Calu-3 cells (Log [inhibitor] -4.52) was 90%. Also, the “% of Viability” value in the series on Calu-3 cells (Log [inhibitor] -5.00) amounted to 88%. Further, in the series on Calu-3 cells (Log [inhibitor] -7.52), the “% of Viability” value stood at 106%.
With `CC(=O)NC(CCC(N)=O)C(=O)NC(CC1CCCCC1)C(=O)NC(CCCNC(=N)N)C(=O)c1nc2ccccc2s1` (stereo not drawn) [Compound N-0676], on human TMPRSS2, the “TMPRSS2 activity (%)” value is 95.6684% and 87.7074% and 100.707%; the inhibition at 0.01 µM stood at 8%. The inhibition at 0.1 µM in series [2] (Severe acute respiratory syndrome coronavirus 2, Calu-3, read-out: inhibition of SARS-CoV-2 infection) is less than 53%.
Regarding `N=C(N)NCCCC(NC(=O)C(Cc1ccccc1)NC(=O)C(CCC(N)=O)NC(=N)N)C(=O)c1nc2ccccc2s1` (stereo not drawn) [Compound N-1296], on human TMPRSS2, the “TMPRSS2 activity (%)” value is 93.2686% and 83.3862% and 77.4595%; the inhibition at 0.01 µM was found to be 16%. Besides, in series [2] (setting [8]), the Nucleocapsid is 31.7311 and 81.7299. The dsRNA in series [2] (setting [9]) was 37.1641 and 78.8536. Further, the inhibition at 0.1 µM in series [2] (setting [10]) is less than 44%.
